Drawing on ChEMBL document CHEMBL1132914, “4-[(8-Alkyl-8-azabicyclo[3.2.1]octyl-3-yl)-3-arylanilino]-N,N-diethylbenzamides: high affinity, selective ligands for the delta opioid receptor illustrate factors important to antagonist activity” (Bioorg Med Chem Lett, 2000), this text covers Stimulation for five compounds.

Assay [1] is filed under the species Cavia porcellus. The assay is described as follows: Percent stimulation of [35S]GTP-gamma-S, binding by the compound in guinea pig caudate membranes for unblocked condition. Type of assay: functional, organism-based. On the technique in general: GTPγS resists hydrolysis and so accumulates on activated G proteins.
For assay [2], the species on record is Cavia porcellus. In words: Percent stimulation of [35S]GTP-gamma-S, binding by the compound (10 uM) in guinea pig caudate membranes for unblocked condition. Type of assay: functional.

`C=CCN1C[C@H](C)N([C@H](c2ccc(C(=O)N(CC)CC)cc2)c2cccc(OC)c2)C[C@H]1C` yielded a Stimulation in assay [1] of 102%.
`C/C=C\CN1C2CCC1CC(N(c1ccc(C(=O)N(CC)CC)cc1)c1cccc(OC)c1)C2` (stereo not given) registered a Stimulation in assay [2] of 37%.
Regarding `CCN(CC)C(=O)c1ccc(N(c2cccc(OC)c2)[C@H]2C[C@H]3CC[C@@H](C2)N3CC=C(C)C)cc1`, in assay [2], the Stimulation was determined as 29%.
As for `C=CCN1[C@@H]2CC[C@H]1C[C@@H](N(c1ccc(C(=O)N(CC)CC)cc1)c1cccc(O)c1)C2`, in assay [2], the Stimulation stood at 79%.
In the case of `C=CCN1[C@@H]2CC[C@H]1C[C@@H](N(c1ccc(C(=O)N(CC)CC)cc1)c1cccc(OC)c1)C2`, the Stimulation in assay [2] was 46%.
